# Assay results published in patent US5574061A, “Benzopyran derivative, process for producing the same and pharmaceutical composition containing the same” (priority 1990, dated 1996).
# Like-named read-outs stand apart in the source and are kept apart here.
# Experiments:
# [1] = biological target: T1, ACAT enzyme (rabbit intestinal mucosa microsome) (Oryctolagus cuniculus, UniProt G1SFD9)
# T1 sequence (G1SFD9 1-524): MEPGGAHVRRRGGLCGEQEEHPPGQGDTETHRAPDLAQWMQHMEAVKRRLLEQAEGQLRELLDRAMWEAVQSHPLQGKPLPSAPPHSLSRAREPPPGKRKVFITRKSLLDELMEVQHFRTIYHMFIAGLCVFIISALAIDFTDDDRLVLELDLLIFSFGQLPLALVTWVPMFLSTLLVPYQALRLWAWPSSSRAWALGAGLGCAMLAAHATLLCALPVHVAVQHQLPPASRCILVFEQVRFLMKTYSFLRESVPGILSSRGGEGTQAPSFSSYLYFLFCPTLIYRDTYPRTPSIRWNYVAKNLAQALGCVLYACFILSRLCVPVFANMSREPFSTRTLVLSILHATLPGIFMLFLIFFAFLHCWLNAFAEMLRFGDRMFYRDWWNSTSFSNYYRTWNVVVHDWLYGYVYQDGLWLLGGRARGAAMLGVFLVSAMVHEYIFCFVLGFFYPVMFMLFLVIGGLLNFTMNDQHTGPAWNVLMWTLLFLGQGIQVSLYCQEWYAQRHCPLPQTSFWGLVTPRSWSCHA
# [2] = tested on: serum cholesterol; experiment: Percentage change of serum cholesterol in rats fed a feed enriched with cholesterol and fat; format: in vivo, male Wistar rats; conditions: Rattus norvegicus, po, 72 h, Wistar rats, vs control; for change in vivo at 10 mg/kg: 10 mg per kg orally once a day for three days; for change in vivo at 1 mg/kg: 1 mg/kg orally once a day for three days
# Source text: Percentage change of serum cholesterol
# Male Wistar rats having a weight of 200 g were preliminarily bred for 7 days while they freely ingested a normal feed (CE-2 manufactured by CLEA Japan Inc.).
# Thereafter, they were bred for 3 days while they freely ingested a feed enriched with cholesterol and fat (2% cholesterol, 1% cholic acid, 20% casein, 45% fine granulated sugar, 12% coconut oil, 4% KC flock, 1% mixed vitamin, 7% mixed mineral and 8% dried fish powder; a product of CLEA Japan Inc.). […] On the other hand, the excipient alone was administered to the control animals.
# 8 hr after the last administration, the test animals were fasted. 16 hr after the initiation of the fasting, these test animals were slaughtered. The serum cholesterol level was measured for each animal.
# The results were compared with those of the control and are given as percentage serum cholesterol (%) in Table 3.
# Percentage change of serum cholesterol (%)={(A-B)/B}×100
# wherein A represents the total cholesterol level of serum in the group of rats to which the test compound was administered; and B represents the total cholesterol level of serum in the control group of rats.
Compound,IC50 [1],further results
Cc1ccc2c(c1NC(=O)C(C)(C)CCCCCCOCCCC(C)C)OCCC2=O [Ex. 29],200 nM,change in vivo at 10 mg/kg [2]: -22%
"COc1ccc2c(c1NC(=O)C(C)(C)CCCCCCBr)OCCC2=O [Ex. 37, N-(7-methoxy-4-chromanon-8-yl)-2,2-dimethyl-8-bromooctaneamide]",25 nM,
CCCCCCCCCCCCNC(=O)Nc1c(OC)ccc2c(=O)ccoc12 [Ex. 10],330 nM,
CCCCCCCCCCC(C)(C)C(=O)Nc1c(C)ccc2c1OCCC2=O [Ex. 19],210 nM,change in vivo at 10 mg/kg [2]: -27%
Cc1ccc2c(c1NC(=O)C(C)(C)CCCCOCCCC(C)C)OCCC2=O [Ex. 26],340 nM,
Cc1ccc2c(c1NC(=O)C(C)(C)CCCCOc1ccc(C(C)(C)C)cc1)OCCC2=O [Ex. 30],50 nM,
Cc1ccc2c(c1NC(=O)C(C)(C)CCCCOc1ccc(Cl)cc1)OCCC2=O [Ex. 31],510 nM,
CCCCCCCCCCCCCCCC(=O)Nc1c(C)ccc2c1OCCC2=O [Ex. 18],7.8 nM,
CCCCCCCCCCCCCCC(C)(C)C(=O)Nc1c(OC)ccc2c(=O)ccoc12 [Ex. 49],,"IC50 ([1]; read-out: ACAT Inhibitory Activity, IC50, rabbit intestinal mucosa microsome, [1-14C] oleoyl CoA, 37° C.): 52 nM"
Cc1ccc2c(c1NC(=O)NCC1(c3ccccc3)CCCC1)OCCC2=O [Ex. 6],530 nM,
"CCCCCCCCCCCCNC(=O)Nc1c(C)ccc2c1OCCC2=O [Ex. 1, 1-Dodecyl-3-(7-methyl-4-chromanon-8-yl)urea]",73 nM,
CCCCCCCCCCC1(C(=O)Nc2c(C)ccc3c2OCCC3=O)CCCC1 [Ex. 20],170 nM,change in vivo at 10 mg/kg [2]: -29%
CCCCCCCCCCCCNC(=O)Nc1c(OC)ccc2c1OCCC2(C)C [Ex. 3],340 nM,
Cc1ccc2c(c1NC(=O)C(C)(C)CCCCCc1ccccc1)OCCC2=O [Ex. 25],250 nM,change in vivo at 10 mg/kg [2]: -32%
Cc1ccc2c(c1NC(=O)C(C)(C)CCCCCOc1ccc(Cl)cc1)OCCC2=O [Ex. 32],470 nM,change in vivo at 10 mg/kg [2]: -33%
CCCCCCCCCCC1(C(=O)Nc2ccc(OC)c3c2OCCC3(C)C)CCCC1 [Ex. 13],1200 nM,
"CCCCCCCCCCC(C)(C)C(=O)Nc1c(OC)ccc2c1OCCC2=O [Ex. 2, N-(7-Methoxy-4-chromanon-8-yl)-2,2-dimethyldodecanamide]",13 nM,
COc1ccc(C2(CNC(=O)Nc3c(C)ccc4c3OCCC4=O)CCCC2)cc1 [Ex. 7],500 nM,
COc1ccc2c(c1NC(=O)NCC1(c3ccccc3)CCCC1)OCCC2(C)C [Ex. 4],690 nM,
Cc1ccc2c(c1NC(=O)C(C)(C)CCCCCCOCC(C)(C)C)OCCC2=O [Ex. 28],54 nM,change in vivo at 10 mg/kg [2]: -31%

# Further lines, with some results ahead:
IC50 [1],Compound,further results
150 nM,CCCCCCCCCCC(C)(C)C(=O)Nc1c(Cl)ccc2c1OCCC2=O [Ex. 47],
180 nM,COc1ccc2c(c1NC(=O)C(C)(C)CCCCCCOc1ccc(Cl)cc1)C(=O)CCO2 [Ex. 45],
270 nM,CCCCCCCCCCC1(C(=O)Nc2c(OC)ccc3c(=O)ccoc23)CCCC1 [Ex. 50],change in vivo at 10 mg/kg [2]: -27%
780 nM,CCCCCCCCCCC(C)(C)C(=O)Nc1c(OC)ccc2c(=O)cc(CC)oc12 [Ex. 54],
43 nM,COc1ccc2c(c1NC(=O)C(C)(C)CCCCCCOc1ccc(C)cc1)OCCC2=O [Ex. 40],
64 nM,COc1ccc2c(c1NC(=O)C(C)(C)CCCCCCOc1ccc(Cl)cc1)OCCC2=O [Ex. 42],change in vivo at 1 mg/kg [2]: -51%
190 nM,COc1ccc2c(=O)ccoc2c1NC(=O)C(C)(C)CCCCOc1ccc(C(C)(C)C)cc1 [Ex. 51],
90 nM,Cc1cc(C)c2c(c1NC(=O)C(C)(C)CCCCCCOCC(C)C)OCCC2=O [Ex. 43],
14 nM,CCCCCCCCCCC(C)(C)C(=O)Nc1c(OCCC)ccc2c1OCCC2=O [Ex. 48],
52 nM,COc1ccc2c(c1NC(=O)C(C)(C)CCCCCOc1ccc(Cl)cc1)OCCC2=O [Ex. 41],change in vivo at 1 mg/kg [2]: -40%
44 nM,COc1ccc2c(c1NC(=O)C(C)(C)CCCCCCc1ccccc1)OCCC2=O [Ex. 38],
81 nM,"COc1ccc2c(c1NC(=O)C(C)(C)CCCCCCOc1ccc(N(C)C)cc1)OCCC2=O [Ex. 55, N-(7-Methoxy-4-chromanon-8-yl)-2,2-dimethyl-8-p-dimethylaminophenoxyoctaneamide]",
160 nM,COc1ccc2c(=O)ccoc2c1NC(=O)C(C)(C)CCCCCOc1ccc(Cl)cc1 [Ex. 52],change in vivo at 3 mg/kg ([2]; 3 mg/kg orally once a day for three days): -17%
400 nM,Cc1cc(C)c2c(c1NC(=O)C(C)(C)CCCCCOc1ccc(Cl)cc1)OCCC2=O [Ex. 44],
